“And” between values parts separate entries of the source, which are not always exact repeats. Equal values may be shown once.
Tested on: SARS-CoV-2
Assay: microbe, parasite or virus in culture
Assay type: cell-based

**Q.** For `O=c1ccn([C@@H]2O[C@H](CO)[C@@H](O)[C@H]2O)c(=S)[nH]1` [s2U, 2-thiouridine], which EC50 is on record?
**A.** 2000 nM and 2200 nM and 1800 nM and 2900 nM and 1900 nM and 2500 nM

Source: PMC10589713 (Proceedings of the National Academy of Sciences of the …, 2023)
